The numbers were not newly measured in publication PMC2785468, “Androgen Receptor Mutations Associated with Androgen Insensitivity Syndrome: A High Content Analysis Approach Leading to Personalized Medicine” (PLoS ONE, 2009), which cites them from elsewhere.

One may read the Kd as the constant that tells how readily two partners part at equilibrium.

One data set has as its target mutant F764L. Conditions: transfected CHO cells; cited from earlier work.
Another data set deals with F764L mutation. Also on record: method as in PMID 7929841. Conditions: MMTV-luc reporter, transfected CV1 cells; cited from earlier work.
Another data set deals with P766S. Details: method as in PMID 7929841. As to conditions: cited from earlier work.
For the next data set, the system named is R840C mutated receptor. Conditions: transfected CV1 cells; cited from earlier work.

With `C[C@]12CCC(=O)C[C@@H]1CC[C@@H]1[C@@H]2CC[C@]2(C)[C@@H](O)CC[C@@H]12` [DHT, dihydrotestosterone], at mutant F764L, the Kd is 0.1 nM. Also, the “transcriptional activity (in words)” value with F764L mutation is listed as “significantly decreased transcriptional activity”. Besides, the “transcriptional activity, % of control” value in the data set on P766S was 9%; in the data set on R840C mutated receptor it was 67%.
